This note sets out measurements from PubChem BioAssay AID1259407 (Chemical Carcinogenesis Research Information System (CCRIS), 2018).

For this series, the system named is CCRIS mutagenicity, Ames/micronucleus/aberration tests. Briefly: CCRIS mutagenicity studies.

Activity calls are given as the source filed them. How the calls were made is not given here.

In the case of `Nc1ccc(Br)cc1`, the mutagenic call was “active; positive” (End Point: IN VITRO MICRONUCLEUS, Test System: CHL/IU CELLS, Metabolic Activation: RAT, LIVER, S-9, PHENOBARBITAL AND 5,6-BENZOFLAVONE); “inactive; negative” (Test System: AMES SALMONELLA TYPHIMURIUM, Strain/Indicator: TA97, Metabolic Activation: HAMSTER, LIVER, S-9, AROCLOR 1254 (10%), Method: PREINCUBATION); “inactive; negative” (Test System: AMES SALMONELLA TYPHIMURIUM, Strain/Indicator: TA97, Metabolic Activation: HAMSTER, LIVER, S-9, AROCLOR 1254 (30%), Method: PREINCUBATION); “inactive; negative” (Test System: AMES SALMONELLA TYPHIMURIUM, Strain/Indicator: TA97, Metabolic Activation: NONE, Method: PREINCUBATION); “inactive; negative” (Test System: AMES SALMONELLA TYPHIMURIUM, Strain/Indicator: TA97, Metabolic Activation: RAT, LIVER, S-9, AROCLOR 1254 (10%), Method: PREINCUBATION); “inactive; negative” (Test System: AMES SALMONELLA TYPHIMURIUM, Strain/Indicator: TA97, Metabolic Activation: RAT, LIVER, S-9, AROCLOR 1254 (30%), Method: PREINCUBATION). Moreover, the mutagenic call (Test System: AMES SALMONELLA TYPHIMURIUM, Strain/Indicator: TA98, Metabolic Activation: HAMSTER, LIVER, S-9, AROCLOR 1254 (10%), Method: PREINCUBATION) was “inactive; negative”; the mutagenic call (Test System: AMES SALMONELLA TYPHIMURIUM, Strain/Indicator: TA98, Metabolic Activation: HAMSTER, LIVER, S-9, AROCLOR 1254 (30%), Method: PREINCUBATION) was “inactive; negative”; the mutagenic call (Test System: AMES SALMONELLA TYPHIMURIUM, Strain/Indicator: TA98, Metabolic Activation: NONE, Method: PREINCUBATION) is “inactive; negative”; the mutagenic call (Test System: AMES SALMONELLA TYPHIMURIUM, Strain/Indicator: TA98, Metabolic Activation: RAT, LIVER, S-9, AROCLOR 1254 (10%), Method: PREINCUBATION) was “inactive; negative”; the mutagenic call (Test System: AMES SALMONELLA TYPHIMURIUM, Strain/Indicator: TA98, Metabolic Activation: RAT, LIVER, S-9, AROCLOR 1254 (30%), Method: PREINCUBATION) was “inactive; negative”; the mutagenic call (Test System: AMES SALMONELLA TYPHIMURIUM, Strain/Indicator: TA100, Metabolic Activation: HAMSTER, LIVER, S-9, AROCLOR 1254 (10%), Method: PREINCUBATION) was “inactive; negative”. Further, the mutagenic call (Test System: AMES SALMONELLA TYPHIMURIUM, Strain/Indicator: TA100, Metabolic Activation: HAMSTER, LIVER, S-9, AROCLOR 1254 (30%), Method: PREINCUBATION) is “inactive; negative”; the mutagenic call (Test System: AMES SALMONELLA TYPHIMURIUM, Strain/Indicator: TA100, Metabolic Activation: NONE, Method: PREINCUBATION) was “inactive; negative”; the mutagenic call (Test System: AMES SALMONELLA TYPHIMURIUM, Strain/Indicator: TA100, Metabolic Activation: RAT, LIVER, S-9, AROCLOR 1254 (10%), Method: PREINCUBATION) was “inactive; negative”; the mutagenic call (Test System: AMES SALMONELLA TYPHIMURIUM, Strain/Indicator: TA100, Metabolic Activation: RAT, LIVER, S-9, AROCLOR 1254 (30%), Method: PREINCUBATION) was “inactive; negative”; the mutagenic call (Test System: AMES SALMONELLA TYPHIMURIUM, Strain/Indicator: TA1535, Metabolic Activation: HAMSTER, LIVER, S-9, AROCLOR 1254 (10%), Method: PREINCUBATION) is “inactive; negative”; the mutagenic call (Test System: AMES SALMONELLA TYPHIMURIUM, Strain/Indicator: TA1535, Metabolic Activation: HAMSTER, LIVER, S-9, AROCLOR 1254 (30%), Method: PREINCUBATION) is “inactive; negative”. For the same compound, the mutagenic call by setting is: (Test System: AMES SALMONELLA TYPHIMURIUM, Strain/Indicator: TA1535, Metabolic Activation: NONE, Method: PREINCUBATION) “inactive; negative”; (Test System: AMES SALMONELLA TYPHIMURIUM, Strain/Indicator: TA1535, Metabolic Activation: RAT, LIVER, S-9, AROCLOR 1254 (10%), Method: PREINCUBATION) “inactive; negative”; (Test System: AMES SALMONELLA TYPHIMURIUM, Strain/Indicator: TA1535, Metabolic Activation: RAT, LIVER, S-9, AROCLOR 1254 (30%), Method: PREINCUBATION) “inactive; negative”; (Test System: E. COLI, Strain/Indicator: WP2 UVRA, Metabolic Activation: NONE, Method: FLUCTUATION TEST) “inactive; negative”.
Consider `Cc1c(C)c([N+](=O)[O-])c(C(C)(C)C)c([N+](=O)[O-])c1C`, for which the mutagenic call (Test System: AMES SALMONELLA TYPHIMURIUM, Strain/Indicator: TA98, Metabolic Activation: RAT, LIVER, S-9, AROCLOR 1254, Method: PREINCUBATION) is “inactive; negative”; the mutagenic call (Test System: AMES SALMONELLA TYPHIMURIUM, Strain/Indicator: TA98, Metabolic Activation: RAT, LIVER, S-9, AROCLOR 1254, Method: STANDARD PLATE) was “inactive; negative”; the mutagenic call (Test System: AMES SALMONELLA TYPHIMURIUM, Strain/Indicator: TA100, Metabolic Activation: RAT, LIVER, S-9, AROCLOR 1254, Method: PREINCUBATION) was “inactive; negative”; the mutagenic call (Test System: AMES SALMONELLA TYPHIMURIUM, Strain/Indicator: TA100, Metabolic Activation: RAT, LIVER, S-9, AROCLOR 1254, Method: STANDARD PLATE) is “inactive; negative”.
